Measured values: ChEMBL document CHEMBL1155003, “Halicyclamine A, a marine spongean alkaloid as a lead for anti-tuberculosis agent” (2008)
Values after ≈ are worked out from the molar mass of the structure shown.

Experiments:
Assay type in all cases: functional
Conditions in all cases: 336 h
[1] = test system: Mycobacterium tuberculosis; experiment: Antitubercular activity against ethambutol-resistant Mycobacterium tuberculosis H37Rv ATCC 35837 after 14 days
[2] = test system: Mycobacterium tuberculosis; experiment: Antitubercular activity against isoniazid-resistant Mycobacterium tuberculosis H37Rv ATCC 35822 after 14 days
[3] = test system: Mycobacterium tuberculosis; experiment: Antitubercular activity against rifampicin-resistant Mycobacterium tuberculosis H37Rv ATCC 35838 after 14 days
[4] = test system: Mycobacterium tuberculosis; experiment: Antitubercular activity against streptomycin-resistant Mycobacterium tuberculosis H37Rv ATCC 35820 after 14 days

C1=C2CCCC/C=C\C=C\CCN3CC[C@@H]4[C@H](CCCCCC/C=C\C=C/CCN(C2)C[C@H]14)C3 [HALICYCLAMINE A]
MIC [1]: 3.13 µg/mL (≈ 6.76 µM)
MIC [2]: 3.13 µg/mL (≈ 6.76 µM)
MIC [3]: 3.13 µg/mL (≈ 6.76 µM)
MIC [4]: 6.25 µg/mL (≈ 13.5 µM)
